From PubChem BioAssay (NCI)
Values joined by “and” are separate entries in the source; they are usually repeats but may differ in a detail not shown here. Identical values can stand only once.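 Cells were grown in 96-well plates and exposed to each compound for 48 hours at five concentrations; endpoints were interpolated linearly between bracketing concentrations, or set to the highest concentration if not reached. Abbreviation: GI50, concentration required for 50% inhibition of growth. At the TGI there is no net growth.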

Columns and labels:
Assay in all cases: NCI anticancer screen, dose series, 48 h
CAKI-1 renal = test system: CAKI-1 renal
SF-268 CNS = test system: SF-268 CNS
HCT-116 colon = test system: HCT-116 colon
RXF 393 renal = test system: RXF 393 renal
UACC-257 melanoma = test system: UACC-257 melanoma
786-0 renal = test system: 786-0 renal
RPMI-8226 leukemia = test system: RPMI-8226 leukemia
KM12 colon = test system: KM12 colon
OVCAR-3 ovarian = test system: OVCAR-3 ovarian
MDA-MB-435 = test system: MDA-MB-435

| SMILES | TGI (CAKI-1 renal) | TGI (SF-268 CNS) | TGI (HCT-116 colon) | TGI (RXF 393 renal) [µM] | TGI (UACC-257 melanoma) | TGI (786-0 renal) | TGI (RPMI-8226 leukemia) | TGI (KM12 colon) | TGI (OVCAR-3 ovarian) | GI50 (CAKI-1 renal) [µM] | GI50 (SF-268 CNS) [µM] | GI50 (RPMI-8226 leukemia) | GI50 (KM12 colon) [µM] | GI50 (HCT-116 colon) [µM] | GI50 (RXF 393 renal) [µM] | GI50 (UACC-257 melanoma) [µM] | GI50 (786-0 renal) [µM] | GI50 (MDA-MB-435) | TGI (MDA-MB-435) | GI50 (OVCAR-3 ovarian) [µM] |
| --- | --- | --- | --- | --- | --- | --- | --- | --- | --- | --- | --- | --- | --- | --- | --- | --- | --- | --- | --- | --- |
| S=c1[nH]c(=S)c2sc(=S)n(-c3ccccc3)c2[nH]1 | > 100 µM | > 100 µM | > 100 µM | > 100 | > 100 µM | > 100 µM | > 100 µM | > 100 µM | > 100 µM |  |  |  |  |  |  |  |  |  |  |  |
| CC1Cc2c(N)nc(NN)nc2NC1=O (stereo unspecified) |  |  | > 100 µM | > 100 | > 100 µM | > 100 µM | > 100 µM | > 100 µM | > 100 µM |  |  |  |  |  |  |  |  |  |  |  |
| CC(=O)OCC1OC(OC2CC3C(C)(C)C(OC(C)=O)CC[C@]3(C)C3CCC45CC4(CC[C@H]5C(C)CC(O)[C@@H](O)C(C)(C)O)[C@]23C)C(O)C(O)C1O (stereo partly specified) | 13.4 µM and 17.2 µM | 14.6 µM and 28.8 µM | 13.8 µM and 21.7 µM | 13.9 | 13.8 µM and 20.7 µM | 14.2 µM and 21.9 µM | 6.74 µM and 11.6 µM | 14.2 µM and 14.1 µM | 13.3 µM and 19.3 µM | 6.07 | 15.4 | 2.09 µM | 4.36 |  |  |  |  |  |  |  |
| N#CC1=C(N)N=C(N2CCCCC2)C(C#N)C12Nc1ccccc1S2 (stereo unspecified) |  | 67.2 µM | > 100 µM | 65.1 | 51 µM | 79.2 µM | > 100 µM | > 100 µM |  |  | 18.9 | 84 µM | 25.6 | 23 | 27 | 20.9 | 26.5 | 18.4 nM | 14.3 µM |  |
| COc1cc2c(c(OC)c1OC)-c1ccc(SC)c(=O)cc1[C@@H](NC(=O)c1ccc(OC(C)=O)cc1)CC2 | > 100 µM | 24.8 µM | 0.0514 µM and 0.015 µM | 0.0813 | 19.2 µM | 12.9 µM |  | 0.0407 µM | 0.034 µM |  |  |  |  |  |  |  |  |  |  |  |
| COc1ccc(C2S/C(=C\c3cc(OC)c(OC)c(OC)c3)C(=O)N2NC(=O)Cc2ccccc2)cc1 (stereo unspecified) | > 100 µM | > 100 µM | > 100 µM | > 100 | > 100 µM | > 100 µM | > 100 µM | > 100 µM |  |  |  |  |  |  |  |  |  |  |  |  |
| COc1ccc(/C=C\c2cc(OC)c(OC)c(OC)c2)cc1OC(=O)C(N)CCC(=O)O (stereo unspecified) |  |  |  |  | 22.8 µM |  |  | 0.0073 µM |  |  |  | 0.000691 µM and < 0.0316 µM | 0.00156 | 0.000425 | 4.67e-05 | 0.000603 | 0.00706 | 0.169 nM and 0.049 nM | 0.000799 µM and 0.000118 µM | 0.000393 |
| O=C(O)c1c2c(c(C(=O)O)c3ccccc13)-c1ccccc1-2 |  | > 100 µM | > 100 µM | 66.9 | > 100 µM | > 100 µM | > 100 µM | > 100 µM | 84 µM |  |  |  |  |  |  |  |  |  |  |  |
| Cc1nc2c(=O)[nH]c(=O)n(C)c2[nH]c1=O | > 100 µM | > 100 µM | > 100 µM | > 100 | > 100 µM | > 100 µM | > 100 µM | > 100 µM | > 100 µM |  |  |  |  |  |  |  |  |  |  |  |
| O=[N+]([O-])c1ccc(Sc2c3ccccc3nc3ccccc23)cc1 | > 100 µM | > 100 µM | > 100 µM | > 100 | > 100 µM | > 100 µM | > 100 µM | > 100 µM | > 100 µM |  |  |  |  |  |  |  |  |  |  |  |
| COC1/C(=C\C(=O)OC(C)(C)C)c2ccccc2N1C(C)=O (stereo unspecified) | > 100 µM |  | > 100 µM | > 100 | > 100 µM | > 100 µM | > 100 µM | > 100 µM | > 100 µM |  |  |  |  |  |  |  |  |  |  |  |
